pIC50: −log10 of the molar value. Where two headings read alike, the source gives them in different places.
Assays:
[1] = tested on: wild-type A75/17-CDV strain (A75^neon); format: cell-based, canine distemper virus
MeV (ICB) = assay: microbe, parasite or virus in culture; format: cell-based; conditions: Measles morbillivirus, NCI-H358 cells
[2] = Cell viability (cytotoxicity), Vero; format: cell-based; conditions: monkey, Vero cells
Vero-cSLAM cells [3] = conditions: 42 h incubation, flow cytometry
MeV polymerase complex = format: cell-based, measles virus
[4] = biological target: membrane-anchored OP-CDV F-protein (Canine distemper virus, UniProt P12569); assay: Heat shock resistance of prefusion F conformation (flow cytometry); conditions: heat shock 65°C; compound 3 75 μM, compound 1 10 μM
CDV polymerase complex = CDV polymerase complex (Canine distemper virus, UniProt P06940+P24658); assay: cell-based; format: cell-based; conditions: for effect on minigenome luciferase activity (RdRp complex activity): compound 1 10 μM, compound 3 50 μM, Bsr-T7 cells, 48 h
[5] = Cell viability (cytotoxicity), NCI-H358; format: cell-based; conditions: human, NCI-H358 cells
[6] = Cell viability (cytotoxicity), HEp-2; format: cell-based; conditions: human, HEp-2 cells
[7] = Cell viability (cytotoxicity), P114; format: cell-based, Canine; conditions: dog, P114 cells
[8] = Cell viability (cytotoxicity), MDCK; format: cell-based, Canine; conditions: dog, MDCK cells
[9] = Cell viability (cytotoxicity), Vero-cNectin-4; format: cell-based; conditions: monkey, Vero-cNectin-4 cells
Vero-cSLAM cells [10] = assay: Cell viability (cytotoxicity), Vero-cSLAM
MeV (Edm) = assay: microbe, parasite or virus in culture; format: cell-based; conditions: Measles morbillivirus
virions (OP^neon/nLucP) = assay: Virucidal effect; format: cell-based, canine distemper virus; conditions: 1 h at 4°C, then dilution to noninhibitory concentration, Vero-cSLAM
Procedure: The virus-compound mixtures were then diluted 10-fold, thereby reaching noninhibitory concentrations. […] Upon inoculation of the diluted mixtures in Vero-cSLAM cells, the viral infectivity was assessed.
OP^neon/nLucP (MOI of 4) was added in a plate containing or not each compound and incubated for 60 min at 4°C. Afterward, the virus and compound mixture was diluted to a noninhibitory drug concentration and added to a monolayer of Vero-cSLAM cells. After 24 h, luminescence was measured using the Nano-Glo live cell assay system (Promega).

[11] = tested on: attenuated OP-CDV strain (OP^neon/nLucP); assay: microbe, parasite or virus in culture; format: cell-based, canine distemper virus
[12] = tested on: wild-type A75/17-CDV (A75^neon/nLucP); assay: microbe, parasite or virus in culture; format: cell-based; conditions: canine distemper virus, Vero-cSLAM cells
RSV-GFP = assay: microbe, parasite or virus in culture; format: cell-based, respiratory syncytial virus; conditions: HEp-2 cells, plaque reduction
VSV = format: cell-based, vesicular stomatitis virus; conditions: Vero cells
[13] = tested on: CDV-induced membrane fusion between effector and target cells; assay: Quantitative cell-to-cell fusion assay; format: cell-based; conditions: exclusively at high concentrations
Excerpt: It is assumed that small molecules at high concentrations may lead to aggregation effects or nonspecific binding.
Measurement of membrane fusion between effector and target cells in presence of increasing concentration of either compound 3 or 1. […] Download FIG S4, TIF file, 3.0 MB.

in vitro = conditions: monkey, Vero-cSLAM cells
PIV-5^neon/nLucP = assay: microbe, parasite or virus in culture; format: cell-based, parainfluenza virus type 5; conditions: PIV-5, Vero cells
[14] = Cell viability (cytotoxicity), Bsr-T7; format: cell-based; conditions: hamster, Bsr-T7 cells
OP^neon/nLucP = assay: Time-of-addition assay; format: cell-based, canine distemper virus; conditions: 10 μM, compounds added after 20 h of infection, readout 48 h
Procedure: To this end, Vero-cSLAM cells were treated with compound 1 at the time of infection or at distinct time points postinfection. In this set of experiments, two previously characterized compounds (compound 3 and ERDRP-0519 [Fig. 1A]) targeting two distinct stages of the viral life cycle (entry and replication, respectively) were added as controls.
Vero-cSLAM cells (96-well plate format) were infected with OP^neon/nLucP at an MOI of 0.04, in the presence of compound 3G (final concentration, 30 μM), ERDRP-0519 (final concentration, 10 μM), or ZHAWO9045 (final concentration 10 μM) added at the indicated time points. Control cells were infected in the presence of equal amounts of DMSO. At 48 h postinfection, luminescence was measured using the Nano-Glo live cell assay system (Promega).

rNiV-EGFP = assay: microbe, parasite or virus in culture; format: cell-based, Nipah virus; conditions: Henipavirus nipahense
[15] = Cell viability (cytotoxicity), PGSA745-EFNB2; format: cell-based; conditions: hamster, PGSA745-EFNB2 cells
[16] = canine distemper virus, 24 h, read-out: IC50 (CDV), Table S5, full list, Vero-cSLAM, CDV OP^neon/nLuc, 24 h postinfection, interval in brackets
[17] = canine distemper virus, BSR-T7, in Mesocricetus auratus, CDV (OP), Bsr-T7 cells (hamster)
[18] = canine distemper virus, CDV (OP), Vero-cSLAM cells
[19] = canine distemper virus, MDCK, in Canis lupus familiaris, CDV (OP), MDCK cells (canine)
[20] = canine distemper virus, Vero, CDV (OP), Vero cells
[21] = canine distemper virus, in Canis lupus familiaris, CDV (OP), P114 cells (canine)
[22] = human respiratory syncytial virus, HEp-2, RSV
[23] = canine distemper virus, 24 h, Table S3, aromatic heterocycles and N-alkylated aminothiazoles, Vero-cSLAM, CDV OP^neon/nLuc, 24 h postinfection, interval in brackets

Sequence of CDV polymerase complex (P24658 whole entry): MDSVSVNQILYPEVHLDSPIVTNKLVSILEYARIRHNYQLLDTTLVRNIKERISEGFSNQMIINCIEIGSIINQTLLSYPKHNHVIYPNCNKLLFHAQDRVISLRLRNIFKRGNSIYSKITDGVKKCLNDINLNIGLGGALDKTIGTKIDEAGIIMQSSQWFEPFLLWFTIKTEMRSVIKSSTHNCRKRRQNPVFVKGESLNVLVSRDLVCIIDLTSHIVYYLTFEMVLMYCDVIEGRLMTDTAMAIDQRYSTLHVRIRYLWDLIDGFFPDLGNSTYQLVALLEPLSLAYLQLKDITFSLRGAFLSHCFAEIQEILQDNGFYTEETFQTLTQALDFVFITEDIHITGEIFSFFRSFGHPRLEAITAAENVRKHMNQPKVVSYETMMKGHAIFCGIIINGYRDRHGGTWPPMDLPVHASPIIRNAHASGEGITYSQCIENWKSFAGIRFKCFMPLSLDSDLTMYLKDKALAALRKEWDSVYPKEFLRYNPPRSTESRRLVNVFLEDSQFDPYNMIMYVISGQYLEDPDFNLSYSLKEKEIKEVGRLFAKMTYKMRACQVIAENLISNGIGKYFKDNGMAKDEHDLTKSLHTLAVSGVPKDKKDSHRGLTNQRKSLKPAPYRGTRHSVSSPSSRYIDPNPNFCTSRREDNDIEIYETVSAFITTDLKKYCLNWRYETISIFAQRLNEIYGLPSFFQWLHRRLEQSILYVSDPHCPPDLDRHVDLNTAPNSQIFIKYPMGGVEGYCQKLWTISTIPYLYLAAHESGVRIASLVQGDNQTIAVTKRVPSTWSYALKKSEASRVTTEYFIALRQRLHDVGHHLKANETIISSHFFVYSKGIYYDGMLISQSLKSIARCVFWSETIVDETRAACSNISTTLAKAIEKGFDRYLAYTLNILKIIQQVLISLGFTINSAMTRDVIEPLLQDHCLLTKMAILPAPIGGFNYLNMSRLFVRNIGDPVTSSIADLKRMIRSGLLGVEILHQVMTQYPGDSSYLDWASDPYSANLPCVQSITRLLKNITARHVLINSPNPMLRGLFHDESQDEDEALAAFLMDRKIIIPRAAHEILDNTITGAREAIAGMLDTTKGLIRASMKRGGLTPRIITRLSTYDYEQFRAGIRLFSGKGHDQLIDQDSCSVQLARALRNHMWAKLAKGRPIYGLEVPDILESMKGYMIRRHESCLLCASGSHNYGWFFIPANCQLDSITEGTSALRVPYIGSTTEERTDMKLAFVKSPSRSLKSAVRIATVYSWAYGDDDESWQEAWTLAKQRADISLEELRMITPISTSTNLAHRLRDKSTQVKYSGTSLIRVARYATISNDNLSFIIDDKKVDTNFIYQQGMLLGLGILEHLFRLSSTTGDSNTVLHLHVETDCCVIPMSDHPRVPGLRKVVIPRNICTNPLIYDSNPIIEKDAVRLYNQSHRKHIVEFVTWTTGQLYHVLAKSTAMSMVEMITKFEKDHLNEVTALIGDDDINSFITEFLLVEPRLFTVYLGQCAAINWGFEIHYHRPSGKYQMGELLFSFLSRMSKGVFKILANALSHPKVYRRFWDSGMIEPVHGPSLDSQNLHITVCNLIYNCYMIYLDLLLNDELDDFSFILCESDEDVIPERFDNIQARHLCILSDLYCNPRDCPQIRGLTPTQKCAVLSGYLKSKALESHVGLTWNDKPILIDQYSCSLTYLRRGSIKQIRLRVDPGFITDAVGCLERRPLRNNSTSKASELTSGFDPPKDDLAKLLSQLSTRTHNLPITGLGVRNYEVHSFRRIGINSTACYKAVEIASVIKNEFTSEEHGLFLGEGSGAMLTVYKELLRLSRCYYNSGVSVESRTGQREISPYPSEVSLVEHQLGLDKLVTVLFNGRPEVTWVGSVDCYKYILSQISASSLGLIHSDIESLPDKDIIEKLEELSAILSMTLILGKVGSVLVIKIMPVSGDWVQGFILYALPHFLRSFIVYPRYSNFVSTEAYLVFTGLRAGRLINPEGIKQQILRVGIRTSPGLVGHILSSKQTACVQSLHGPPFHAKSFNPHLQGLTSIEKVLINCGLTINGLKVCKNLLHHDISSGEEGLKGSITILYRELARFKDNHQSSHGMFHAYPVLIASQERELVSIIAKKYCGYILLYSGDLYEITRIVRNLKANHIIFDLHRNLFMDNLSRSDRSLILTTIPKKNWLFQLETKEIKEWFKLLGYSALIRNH
Sequence of CDV polymerase complex (P06940 whole entry): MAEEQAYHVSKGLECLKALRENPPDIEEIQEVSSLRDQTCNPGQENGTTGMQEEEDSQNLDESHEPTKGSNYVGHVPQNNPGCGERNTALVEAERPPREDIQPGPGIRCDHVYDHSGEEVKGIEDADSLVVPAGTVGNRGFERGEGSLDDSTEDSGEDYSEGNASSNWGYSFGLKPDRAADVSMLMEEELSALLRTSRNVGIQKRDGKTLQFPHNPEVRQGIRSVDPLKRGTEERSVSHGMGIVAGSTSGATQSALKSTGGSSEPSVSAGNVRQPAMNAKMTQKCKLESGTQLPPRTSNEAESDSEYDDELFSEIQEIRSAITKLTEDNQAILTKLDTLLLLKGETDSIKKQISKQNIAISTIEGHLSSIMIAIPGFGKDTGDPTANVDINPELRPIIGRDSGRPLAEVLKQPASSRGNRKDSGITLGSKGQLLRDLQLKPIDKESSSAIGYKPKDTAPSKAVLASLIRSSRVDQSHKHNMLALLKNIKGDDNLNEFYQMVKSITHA
Sequence of membrane-anchored OP-CDV F-protein (P12569 136-224): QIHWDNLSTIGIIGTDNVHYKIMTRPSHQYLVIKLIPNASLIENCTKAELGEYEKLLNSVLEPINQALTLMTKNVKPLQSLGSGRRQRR
Sequence of membrane-anchored OP-CDV F-protein (P12569 225-662): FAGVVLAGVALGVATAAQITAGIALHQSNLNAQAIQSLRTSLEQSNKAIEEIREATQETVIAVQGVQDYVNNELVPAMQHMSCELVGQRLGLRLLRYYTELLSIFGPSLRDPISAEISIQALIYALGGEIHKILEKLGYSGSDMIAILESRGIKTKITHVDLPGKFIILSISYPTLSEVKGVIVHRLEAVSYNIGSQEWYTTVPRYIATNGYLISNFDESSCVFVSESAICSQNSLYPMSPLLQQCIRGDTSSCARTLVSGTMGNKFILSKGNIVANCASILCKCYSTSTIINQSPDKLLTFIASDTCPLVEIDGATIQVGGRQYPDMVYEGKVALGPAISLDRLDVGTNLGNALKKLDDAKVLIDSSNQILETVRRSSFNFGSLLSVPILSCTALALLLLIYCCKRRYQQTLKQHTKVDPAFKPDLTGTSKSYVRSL

Row | SMILES | CC50 [2] [µM] | concentration at which impact on cell cycle progression (G1 arrest) is statistically significant (Vero-cSLAM cells [3]) [µM] | stabilizing effect on prefusion F-trimers [4] | effect on minigenome luciferase activity (RdRp complex activity) (CDV polymerase complex) | CC50 [6] [µM] | CC50 [7] [µM] | CC50 [8] [µM] | inhibitory activity after 10-fold dilution of virus-compound mixture (virucidal activity) (virions (OP^neon/nLucP)) | pIC50 [11, 16] | pIC50 [11, 17] | pIC50 [11, 18] | pIC50 [11, 19] | pIC50 [11, 20] | pIC50 [11, 21] | pIC50 [12] | pIC50 (RSV-GFP; [22]) | CC50 (in vitro) [µM] | pIC50 (PIV-5^neon/nLucP; parainfluenza virus 5, Vero) | pIC50 [11, 23] | further results
1 | Cn1nc(C(F)(F)F)cc1C(=O)Nc1ccc(S(=O)(=O)N2CCCC[C@H]2CCN2CCOCC2)cc1 [ERDRP-0519, reference compound] | – | – | – | – | – | – | – | – | – | – | – | – | – | – | – | – | – | – | – | tolerated dose at the end of adaptation ([1]; stepwise adaptation of A75/17-CDV): ≥ 30 µM
2 | CC1(C)Cc2cccc(OCC(=O)Nc3nc4ccccc4s3)c2O1 [compound 1] | 46 | 30 | did not | sufficient to significantly inhibit the luciferase activity | 110 | 57 | 99 | entirely lost its inhibitory activity | 6.28 | ~5.15 | ~6.35 | 4.52 | 6.40 | 5.59 | ~6.15 | ~5.22 | 52 | ~5.15 | – | pIC50 (MeV (ICB)): 6.43; effect on MeV polymerase activity (minigenome) (MeV polymerase complex): inhibition of MeV polymerase activity was recorded; inhibition at 10 µM (CDV polymerase complex; BSR-T7, read-out: inhibition of polymerase activity in the minigenome assay): ~50%; CC50 [5]: 50 µM; CC50 [9]: 43 µM; CC50 (Vero-cSLAM cells [10]): ~50 µM; pIC50 (MeV (Edm); NCI-H358): 6.28; pIC50 (MeV (Edm); Vero): 6.60; pIC50 ([11]; CDV (OP), Bsr-T7 cells (hamster)): 5.14; pIC50 ([11]; canine distemper virus, 24 h, Vero-cSLAM, CDV OP^neon/nLuc, luciferase 24 h postinfection): 6.28; pIC50 ([11]; canine distemper virus, CDV (OP), Vero-cNectin-4 cells): 6.37; pIC50 ([11]; canine distemper virus, read-out: IC50 values, summary for MeV and CDV): 6.15 to 6.70; pIC50 (RSV-GFP; RSV): 5.23; antiviral activity against VSV (VSV): did not display any activity; effect on membrane fusion activity [13]: enhance fusion activity; pIC50 (PIV-5^neon/nLucP): 5.14; CC50 [14]: 50 µM; emergence of viral resistance ([1]; 83-day study, four separate replicates): did not induce any detectable viral resistance; time-of-addition inhibition profile (OP^neon/nLucP): acted like ERDRP-0519
3 | CN(C(=O)COc1cccc2c1OC(C)(C)C2)c1nc2c(s1)CCCC2 [compound 2] | 52 | 1 | – | – | 51 | 65 | 87 | – | – | 7.92 | 8.59 | 7.19 | 8.52 | 7.72 | 8.49 | 7.51 | 54 | 7.82 | 8.08 | pIC50 (rNiV-EGFP): 7.10; CC50 [15]: 80 µM; IC50 ([11]; Vero-cSLAM, CDV OP^neon/nLuc, luciferase 24 h postinfection): single-digit nanomolar
4 | N#Cc1cccc(NC(=O)Cc2ccccc2)c1 [compound 3, reference compound] | – | – | strong stabilizing effect | luciferase activity remained similar to that for vehicle | – | – | – | still efficiently prevented viral infectivity even after the dilution step | 4.59 | – | 5.10 | – | – | – | 5.22 | – | 130 | – | – | –
5 | C#CCCCN(C(=O)COc1cccc2c1OC(C)(C)C2)c1nc2ccccc2s1 [compound 23] | – | – | – | – | – | – | – | – | – | – | – | – | – | – | – | – | – | – | 6.57 | –

Source: PMC8561388 (mBio, 2021)
